Test results as given in article PMC8781304, “Arene-Ruthenium(II) Complexes with Carbothiamidopyrazoles as a Potential Alternative for Antibiotic Resistance in Human” (Molecules, 2022).
Where two headings read alike, the source gives them in different places.

What was measured:
S. aureus ATCC 29213 [1] = assay: Synergy with oxacillin and vancomycin, partial checkerboard broth microdilution; type: cell-based, Staphylococcus aureus; conditions: S. aureus ATCC 29213; for FIC (Oxa) / FIC (Van): MIC antibiotic in combination/MIC antibiotic alone; for MIC Oxa in Combination: oxacillin with the complex at ½ MIC (NH4PF6 250 µg/mL); for MIC Van in Combination: vancomycin with the complex at ½ MIC (NH4PF6 250 µg/mL)
[2] = test system: S. epidermidis ATCC 12228; assay: as above; type: cell-based, Staphylococcus epidermidis; conditions: S. epidermidis ATCC 12228; for FIC (Oxa) / FIC (Van): MIC antibiotic in combination/MIC antibiotic alone; for MIC Oxa in Combination: oxacillin with the complex at ½ MIC (NH4PF6 250 µg/mL); for MIC Van in Combination: vancomycin with the complex at ½ MIC (NH4PF6 250 µg/mL)
S. aureus ATCC 29213 [3] = assay: Time-kill test; type: cell-based, Staphylococcus aureus; conditions: 1 × MIC
Experimental: (§1) The time-kill experiments were performed as described previously. Briefly, inocula were prepared in TSB medium (TSB; […] BTL Sp. z o.o., Łódź, Poland). All samples were incubated at 35 °C and 80 rpm for varied time intervals (2, 4, 6, 12, 18, 24, 48h). The percentage of dead cells was calculated according to the growth control by determining the number of living cells (CFU/mL) of each tube using the agar plate count method. Samples were immediately serially diluted ten-fold in 0.01 M phosphate buffered saline (PBS, Bimed Lublin S.A., Lublin, Poland) at pH 7.0 and 10 μL aliquots were spot-inoculated in duplicate onto MHA plates. Agar plates were incubated at 37 °C overnight before determining the viable count. Two independent experiments were carried out.

[4] = test system: S. epidermidis ATCC 12228; assay: Time-kill test; type: cell-based, Staphylococcus epidermidis; conditions: 1 × MIC
Experimental: as §1

[5] = test system: S. epidermidis ATCC 12228; assay: Cell lysis (bacteriolysis, OD600); type: cell-based, Staphylococcus epidermidis; conditions: 1 × MBC
[6] = test system: Staphylococcus aureus ATCC 29213; assay: Fluorescence microscopy, Hoechst 33258 / propidium iodide viability; type: cell-based; conditions: S. aureus ATCC 29213; MIC concentration, 24 h
Experimental: (§2) Staphylococcus aureus ATCC 29213 and Staphylococcus epidermidis ATCC 12228 strains were treated with tested compounds 2a–2d and 3a–3d at a concentration 1 × MIC for 24h, while untreated cells were used as a growth control. After incubation, the cells were harvested and a suspension of 1 × 10^5 cells/mL in PBS was prepared. Following this, 1 µl of the fluorescent dyes Hoechst 33258 and propidium iodide (15 µg/mL each) (Sigma, St. Louis, MO, USA) were added. The obtained mixture was incubated in the dark at room temperature for 15–20 min. After incubation, the cell suspensions, placed on glass slides, were analyzed under an Olympus IX 70 fluorescence microscope (Shinjuku, Tokyo, Japan), using a 360–370 nm UV filter. Photos were taken at 10 × 20 magnification.

[7] = test system: Staphylococcus epidermidis ATCC 12228; assay: as above; type: cell-based; conditions: S. epidermidis ATCC 12228; MIC concentration, 24 h
Experimental: as §2

[8] = test system: WM-115 melanoma cell line; conditions: cited from earlier work
[9] = test system: Supercoiled plasmid pUC57 DNA; parameters: method as in PMID 35540189; conditions: studied previously; cited from earlier work
[10] = read-out: IC50 (cytotoxicity), WM-115 melanoma cell line

Row | SMILES | Correlation with Oxa and Van (synergy), in words (S. aureus ATCC 29213 [1]) | FIC (Oxa) (S. aureus ATCC 29213 [1]) | FIC (Van) (S. aureus ATCC 29213 [1]) | MIC Oxa in Combination (S. aureus ATCC 29213 [1]) [mg/L] | MIC Van in Combination (S. aureus ATCC 29213 [1]) [mg/L] | FIC (Oxa) [2] | FIC (Van) [2] | MIC Oxa in Combination [2] [mg/L] | MIC Van in Combination [2] [mg/L] | Time-kill: bacteriostatic or bactericidal (S. aureus ATCC 29213 [3]) | Time-kill: bacteriostatic or bactericidal [4] | Cell lysis, change of OD600 [5] | Change in bacterial viability (Hoechst 33258 / PI fluorescence) [6] | Change in bacterial viability (Hoechst 33258 / PI fluorescence) [7] | IC50 [8, 10] [µM] | Correlation with Oxa and Van (synergy), in words [2] | Nicking of DNA Form I into Form II and III [9] | IC50 [8] [µM]
1 | Cc1ccc(C(C)C)cc1.NC(=S)n1nc(-c2ccccc2)cc1O.[Cl-].[Cl][Ru+] [Compound 2c] | synergistic effects | 0.5 | 0.5 | 0.125 | 0.25 | 0.25 | 1 | 0.06 | 0.5 | bacteriostatic | bactericidal | quite moderate decrease in OD600 | greatest changes in bacterial viability | greatest changes in bacterial viability | 26.7 |  |  | 
2 | CCc1cc(CC)n(C(N)=S)n1.Cc1ccc(C(C)C)cc1.[Cl-].[Cl][Ru+] [Compound 2b] | synergistic effects | 0.5 | 0.5 | 0.125 | 0.25 | 0.06 | 0.03 | 0.015 | 0.015 | bacteriostatic | bacteriostatic | not found to change OD600 values | Less changes in cell survival | Less changes in cell survival |  | synergistic effect in all tested configurations | nick the DNA Form I into Form II and III | 
3 | N.N.[Cl][Pt][Cl] [cisplatin, reference compound] |  |  |  |  |  |  |  |  |  |  |  |  |  |  |  |  |  | 18.2
4 | Cc1cc(O)n(C(N)=S)n1.Cc1ccc(C(C)C)cc1.[Cl-].[Cl][Ru+] [Compound 2d] |  | 0.5 | 1 | 0.125 | 0.50 | 0.5 | 1 | 0.125 | 0.5 |  |  |  | no significant changes in the viability | no significant changes in the viability | 7.9 |  | nick the DNA Form I into Form II and III | 
